Results as given in patent US20080214666A1, “Products and Methods Related to Mono-Methyl Branched-Chain Fatty Acids” (The Regents of the University of Colorado, priority 2004, published 2008).
Entries after “also recorded” stand apart in the source; their conditions may differ.

Experiments:
[1] = test system: elo-5(RNAi) worms; assay: Phenotype rescue of elo-5(RNAi) worms using FA supplements; assay type: in vivo, Caenorhabditis elegans; settings: for plates on which the supplement rescued the elo-5 RNAi defects: FA supplement (90 μl of 4 mM) on elo-5(RNAi) plates, progeny scored 4 and 5 days later, rescued/total plates; for rescue of elo-5(RNAi) phenotype: animals grown on elo-5 RNAi plates with supplement or mmBCFA-producing bacteria; for rescue of mmBCFA deficiency: added as food supplements; for plates with partial rescue of the elo-5 RNAi defects: FA supplement on elo-5(RNAi) plates, partially rescued/total plates
Method: The RNAi feeding strain was E. coli HT115 transformed with either empty pPD129.36 vector (controls) or with dsRNA-producing constructs. Unless stated differently, wild type N2 Bristol animals were plated as synchronized adults.
(§1) Ninety μl of the 4 mM solution of FA (Sigma) in 1% NP40 or 10% DMSO was dropped on the side of the bacterial lawn that contained either elo-5 dsRNA-producing plasmid or the control HT115 vector. Two synchronized young adults were plated and their progeny was scored 4 and 5 days later. Each experiment was performed in at least 30 replicates. For recovering elo-5(RNAi) worms from L1 arrest, wild type adults were placed on the elo-5(RNAi) plates. Four days later, their progeny was removed and eggs of the next generation were left on the plates. Hatched L1 were kept for two or four days before transferring as agar chunks to new elo-5(RNAi) plates. FA supplements were added to spots next to the chunks. Ten plates were prepared for each FA supplement. Control plates contained no supplements.

[2] = test system: elo-5(RNAi) worms; assay: GC analysis of FA composition in elo-5(RNAi) worms grown on supplemented plates; assay type: in vivo, Caenorhabditis elegans; settings: for incorporation of the supplement into lipids and its elongation (GC): elo-5(RNAi) worms on supplemented plates; for elongation of the supplement to C17ISO: added as food supplements
Method: A mixed population of well-fed worms were washed off the plates with water, rinsed 3-4 times, and, after aspirating away water, were frozen at −80° C. Fatty Acid Methyl Esters and lipid extraction were performed as described (Miquel and Browse 1992). GC was performed on the HP6890N (Agilent) equipped with a DB-23 column (30 m×250 μm×0.25 μm) (Kniazeva, Sieber et al. 2003). Each experiment was repeated at least five times. Average values and standard deviations were then calculated for each of the compounds in the experiments.
as §1, with “supplements. […] Neither C15 nor C17 mmBCFA added to let-418(RNAi) plates modified the expected phenotype.” for “supplements.”

[3] = test system: elo-5(RNAi) L1-arrested worms; assay: Recovery of elo-5(RNAi) worms from L1 arrest with FA supplements; assay type: in vivo, Caenorhabditis elegans
Method: as §1, with “supplements. […] Neither C15 nor C17 mmBCFA added to let-418(RNAi) plates modified the expected phenotype.” for “supplements.”

[4] = test system: elo-5(gk208); assay: Rescue, growth and maturation of the elo-5(gk208) mutant on supplemented plates; assay type: in vivo, C. elegans
[5] = test system: mmBCFA deficient early L1 larvae; assay: Feeding of mmBCFA deficient early L1 larvae on plates without bacteria; assay type: in vivo, C. elegans; settings: supplements on the plates without bacteria
[6] = test system: lpd-1(RNAi) animals; assay: Rescue of lpd-1(RNAi) feeding defects by supplement; assay type: in vivo, C. elegans; settings: supplement added to the plates
[7] = test system: human cancer; settings: Yang, Liu et al. 2000; cited from earlier work
[8] = test system: N2; assay: Growth and maturation of wild type N2 on supplemented plates; assay type: in vivo, C. elegans
[9] = Elongation of exogenous short chain mmBCFA in cultured human cells; assay type: cell-based
[10] = test system: mouse C2C12 (myoblasts); assay: Elongation of exogenous short chain mmBCFA in cultured mouse cells; assay type: cell-based

With `CCCCCC/C=C\CCCCCCCC(=O)O` [C16:1 n7, reference compound] as the compound, how does the “plates on which the supplement rescued the elo-5 RNAi defects” value [1] read?
Its value is 0/30.

For `CCC(C)CCCCCCCCCCCCC(=O)O` (stereo not shown) [C17anteISO, 14-methyl hexadecanoic acid], which “plates on which the supplement rescued the elo-5 RNAi defects” value [1] is on record?
The value was 58/60.

What about the “rescue of elo-5(RNAi) phenotype” value [1] of the same compound?
Its value is “fully rescued”.

What about the “incorporation of the supplement into lipids and its elongation (GC)” value [2] of the same compound?
Its value is “significantly incorporated into lipids”.

What about the “arrested L1 rescued to full growth and proliferation” value ([3]; four-day-old L1) of the same compound?
Its value is roughly 1%.

What about the “arrested L1 rescued to full growth and proliferation” value ([3]; two day-arrested L1) of the same compound?
The value was “about 50%”.

With `CCCCC/C=C\C/C=C\C/C=C\CCCCC(=O)O` [C18:3 n6, reference compound] as the compound, how does the “plates on which the supplement rescued the elo-5 RNAi defects” value [1] read?
The value was 0/30.

For `CCCCCCCCCCCCCCCCC(=O)O` [C17:0, reference compound], which “plates on which the supplement rescued the elo-5 RNAi defects” value [1] is on record?
The value was 0/30.

What does the source list for `CC(C)CCCCCCCCCCCCCC(=O)O` [C17ISO, 15-methyl hexadecanoic acid]?
plates on which the supplement rescued the elo-5 RNAi defects [1]: 52/60; rescue of mmBCFA deficiency [1]: rescue mmBCFA deficiency; rescue of elo-5(RNAi) phenotype [1]: fully rescued; growth of homozygous elo-5(gk208) on supplemented plates ([4]; plates supplemented or seeded): grew normally; also recorded: grew without any obvious morphological defects; development of early L1 arrested larvae [5]: able to elongate and proceed to the mid-L1 stage; rescue of lpd-1 RNAi feeding defects (slow growth, morphological abnormalities, egg-laying defects) [6]: did not significantly rescue these defects; incorporation of the supplement into lipids and its elongation (GC) [2]: significantly incorporated into lipids; arrested L1 rescued to full growth and proliferation ([3]; four-day-old L1): ~1%; arrested L1 rescued to full growth and proliferation ([3]; two day-arrested L1): about 50%

With `CC(C)CCCCCCCCCCCCCCCC(=O)O` [C19ISO, reference compound] as the compound, how does the “plates on which the supplement rescued the elo-5 RNAi defects” value [1] read?
The value was 0/30.

What does the source list for `CC(C)CCCCCCCCCCCC(=O)O` [C15ISO, 13-methyl myristic acid]?
plates with partial rescue of the elo-5 RNAi defects [1]: 23/38; rescue of mmBCFA deficiency [1]: rescue mmBCFA deficiency; rescue of elo-5(RNAi) phenotype [1]: partially rescued; incorporation of the supplement into lipids and its elongation (GC) [2]: no accumulation of C15ISO or its elongation to C17ISO was detectable; effect on human cancer [7]: growth inhibitor of human cancer where it selectively induces apoptosis

Which “plates on which the supplement rescued the elo-5 RNAi defects” value [1] does the source give for `CC(C)CCCCCCCCCCCCCCC(=O)O` [C18ISO, reference compound] here?
Its value is 0/30.

For `COC(=O)CCCCCCCCCC(C)C` [C13ISO-methyl ester], which “elongation of the supplement to C17ISO” value [2] is on record?
The value was “can be efficiently elongated to C17ISO”.

With `CCCCCCCCCCCCCCCC(=O)O` [C16:0, palmitic acid, reference compound] as the compound, how does the “plates on which the supplement rescued the elo-5 RNAi defects” value [1] read?
The value was 0/30.

With `CC(C)CCCCCCCCCC(=O)O` [C13ISO] as the compound, how does the “plates on which the supplement rescued the elo-5 RNAi defects” value [1] read?
The value was 0/30.

What about the “rescue of mmBCFA deficiency” value [1] of the same compound?
The value was “rescue mmBCFA deficiency”.

And the “egg laying and survival on the second day of adulthood” value ([4]; elo-5(gk208), 0.75 mM and 1 mM)?
Its value is “fail to lay eggs and die a few days later”.

And the growth rate ([4]; elo-5(gk208), 0.75 mM and 1 mM)?
Its growth rate is “grow as fast as N2 without supplements”.

And the “developmental stage on forth day after hatching” value ([4]; elo-5(gk208), 10 mM)?
Its value is “remain at L4 or young adults stages”.

What about the “effect on growth and maturation” value ([4]; elo-5(gk208), 2.5-10 mM) of the same compound?
Its value is “slowing at the L4 stage accompanied by a delay in the adult maturation”.

What about the brood size ([4]; elo-5(gk208), high concentrations (2.5-10 mM)) of the same compound?
The brood size was “maintain wild type brood size”.

And the “animals that reach adulthood and have viable progeny” value ([4]; supplement concentration above 0.75 mM)?
The value was 100%.

And the “rescue from elo-5(gk208) phenotype” value ([4]; supplement concentration range 0-0.5 mM)?
The value was “no rescue; also recorded: does not rescue”.

What about the growth rate ([8]; N2, 0.75 mM and 1 mM) of the same compound?
The growth rate was “grow as fast as N2 without supplements”.

And the “developmental stage on forth day after hatching” value ([8]; N2, 10 mM)?
The value was “remain at L4 or young adults stages”.

And the “effect on growth and maturation” value ([8]; N2, 2.5-10 mM)?
Its value is “slowing at the L4 stage accompanied by a delay in the adult maturation”.

What about the brood size ([8]; N2, high concentrations (2.5-10 mM)) of the same compound?
The brood size was “maintain wild type brood size”.

And the “ability to modulate growth rate between L4 and adult stage” value ([8]; dietary supplement)?
The value was “modulate growth rate between L4 and adult stage”.

What about the “elongation into C15ISO and C17ISO in vitro” value ([9]; RIN-M5F (pancreatic beta cells)) of the same compound?
The value was “able to elongate”.

What about the “elongation into C15ISO and C17ISO in vitro” value ([9]; SY-5Y (neuroblastoma)) of the same compound?
Its value is “able to elongate”.

What about the “elongation into C15ISO and C17ISO in vitro” value [10] of the same compound?
Its value is “able to elongate”.

Which “elongation of the supplement to C17ISO” value [2] does the source give for `COC(=O)CCCCCCCCCCCC(C)C` [C15ISO-methyl ester] here?
Its value is “can be efficiently elongated to C17ISO”.

Which “plates on which the supplement rescued the elo-5 RNAi defects” value [1] does the source give for `CC(C)CCCC(C)CCCC(C)CCCC(C)CC(=O)O` (stereo not shown) [phytanic acid, reference compound] here?
Its value is 0/30.

With `CCC(C)CCCCCCCCCCC(=O)O` (stereo not shown) [C15anteISO] as the compound, how does the “plates with partial rescue of the elo-5 RNAi defects” value [1] read?
Its value is 20/28.
